Measurements from patent publication US20240277717A1, “APPLICATION OF GANCICLOVIR IN PREPAPRATION OF MEDICINE FOR TREATING ALLERGIC RHINITIS” (Union Hospital, Tongji Medical College, Huazhong University …, priority 2023, published 2024).

Tested on: patients with the intractable AR
Experiment: Interventional non-randomized cohort study of GCV for intractable AR: clinical symptom scores (VAS, ARCT, TNSS)
Format: in vivo, human
Settings: for TNSS after GCV treatment / rhinocnesmus score after GCV treatment / sneezing score after GCV treatment / rhinocleisis score after GCV treatment / rhinorrhea score after GCV treatment / ARCT after GCV treatment / VAS after GCV treatment: 14 days; for ARCT after GCV then routine anti-allergic medicines / TNSS after GCV then routine anti-allergic medicines / VAS after GCV then routine anti-allergic medicines / rhinocleisis score after GCV then routine anti-allergic medicines / rhinocnesmus score after GCV then routine anti-allergic medicines / rhinorrhea score after GCV then routine anti-allergic medicines / sneezing score after GCV then routine anti-allergic medicines: then routine anti-allergic medicines 14 days
Excerpt: All patients are recruited from outpatient department of otolaryngology, the patients with AR complain of poor efficacy of routine anti-allergic medicines (nasal glucocorticoid sprays, oral antihistamines, nasal antihistamine sprays and oral leukotriene receptor antagonists). The inclusion and exclusion criteria of recruiting are as follows.
The exclusion criteria: (1) patients have viral/bacterial infection symptoms, fevers and/or other systemic manifestations in the past 2 weeks; (2) patients have other nasal diseases, such as nasal polyps or nasal tumors; (3) patients have a history of nasal surgery in the past 6 months; (4) patients are allergic to the GCV; (5) patients are pregnant women and patients are preparing for pregnancy; (6) the patients have severe neutropenia (absolute neutrophil count<0.5×10^9 per liter) or severe thrombocytopenia (platelet count<2.5×10^10 per liter).
An interventional non-randomized cohort study is conducted. Selected patients are treated with the routine anti-allergic medicines for 2 weeks to exclude the illusion of poor efficacy due to non-standard medication (combined use of nasal spray hormones and oral antihistamines to exclude treatment, and the selected patients are switched to with another brand of similar medicines if the selected patients have previously used the above medicines but no effect).
The selected patients are grouped according to responses to the routine anti-allergic medicines. If the routine anti-allergic medicines treatments are effective, the selected patients are classified as a common AR group; if ineffective, the selected patients are defined as intractable AR patients. The intractable AR patients are treated with the GCV for 2 weeks (oral, 500 milligrams per time (mg/time) twice a day for the patients≥14 years old; 250 mg/time twice a day for the patients<14 years old). If the GCV treatments are ineffective, the patients are classified as a GCV ineffective group; if effective, the patients are classified as GCV effective group. After 2 weeks of the GCV treatment, the patients in the GCV effective group, if total nasal symptom score (TNSS)≥4 or visual analogue scale (VAS)≥3 centimeters (cm) after the GCV treatment, […], conversely, the GCV treatment ends. The nasal symptoms are evaluated at each follow-up. In this situation, nasal secretion smears, nasal secretions, nasal scraping epithelial cells and peripheral blood are collected.
The visual analogue scale (VAS): the severity of all comprehensive symptoms is assessed by the VAS, ranging from 0 (no symptoms) to 10 centimeters (most severe and imaginable symptoms). Allergic rhinitis and its impact on asthma (ARIA) 2008 guideline classification: “mild” AR=0-3 centimeters, “moderate” AR=3.1-7 centimeters, “severe” AR=7.1-10 centimeters.
Allergic rhinitis control test (ARCT) is a self-administered questionnaire on AR control verified by Demoly et al. It consists of five questions with a score of 1-5 points for each question scored and a total score of 5-25 points. The intractable AR is defined as patients with ARCT score<20 points after 2 weeks of treatment.
Nasal symptom score: rhinocleisis, rhinocnesmus, sneezing, rhinorrhea are scored separately. No symptoms=0; mild (mild symptoms, easy to tolerate)=1; moderate (obvious symptoms, annoying, but tolerable)=2; severe (symptoms are not tolerable, affecting daily life or sleep)=3. The total nasal symptom score (TNSS) is the sum of all nasal symptom scores, ranging from 0 to 12.

[1] = Case 1, GCV 250 mg/time twice a day, before 1
[2] = Case 1, GCV 250 mg/time twice a day, before 3
[3] = Case 2, GCV 500 mg/time twice a day, before 2
[4] = Case 2, GCV 500 mg/time twice a day, before 7
[5] = Case 2, GCV 14 days, then nasal spray hormone plus oral antihistamines 14 days
[6] = Case 3, GCV 250 mg/time twice a day, before 3
[7] = Case 4, GCV 500 mg/time twice a day, before 1
[8] = Case 5, GCV 500 mg/time twice a day, before 3

Nc1nc(O)c2ncn(COC(CO)CO)c2n1 [GCV, Ganciclovir]
TNSS after GCV treatment (Case 1 (person one), GCV 250 mg/time twice a day, before 8): 3 points
rhinocnesmus score after GCV treatment [1]: 1 points
sneezing score after GCV treatment [1]: 0 points
rhinocleisis score after GCV treatment [2]: 1 points
rhinorrhea score after GCV treatment [2]: 1 points
ARCT after GCV treatment (Case 1, GCV 250 mg/time twice a day, before 5): 21 points
VAS after GCV treatment (Case 1, GCV 250 mg/time twice a day, before 8): 4.5 cm
ARCT after GCV then routine anti-allergic medicines (Case 1, GCV 14 days): 24 points
TNSS after GCV then routine anti-allergic medicines (Case 1, GCV 14 days): 2 points
VAS after GCV then routine anti-allergic medicines (Case 1, GCV 14 days): 2.5 cm
rhinocleisis score after GCV then routine anti-allergic medicines (Case 1, GCV 14 days): 1 points
rhinocnesmus score after GCV then routine anti-allergic medicines (Case 1, GCV 14 days): 0 points
rhinorrhea score after GCV then routine anti-allergic medicines (Case 1, GCV 14 days): 1 points
sneezing score after GCV then routine anti-allergic medicines (Case 1, GCV 14 days): 0 points
rhinocleisis score after GCV treatment [3]: 2 points
rhinocnesmus score after GCV treatment [3]: 2 points
rhinorrhea score after GCV treatment [3]: 0 points
sneezing score after GCV treatment [3]: 0 points
ARCT after GCV treatment [4]: 20 points
VAS after GCV treatment [4]: 4 cm
TNSS after GCV treatment (Case 2, GCV 500 mg/time twice a day, before 8): 4 points
ARCT after GCV then anti-allergic medicines [5]: 25 points
TNSS after GCV then anti-allergic medicines [5]: 1 point
VAS after GCV then anti-allergic medicines [5]: 2 cm
rhinocleisis score after GCV then anti-allergic medicines [5]: 1 point
rhinocnesmus score after GCV then anti-allergic medicines [5]: 0 point
rhinorrhea score after GCV then anti-allergic medicines [5]: 0 point
sneezing score after GCV then anti-allergic medicines [5]: 0 point
rhinocleisis score after GCV treatment [6]: 2 points
rhinocnesmus score after GCV treatment [6]: 1 points
rhinorrhea score after GCV treatment [6]: 3 points
sneezing score after GCV treatment [6]: 3 points
ARCT after GCV treatment (Case 3, GCV 250 mg/time twice a day, before 5): 22 points
VAS after GCV treatment (Case 3, GCV 250 mg/time twice a day, before 10): 5 cm
TNSS after GCV treatment (Case 3, GCV 250 mg/time twice a day, before 12): 9 points
ARCT after GCV then routine anti-allergic medicines (Case 3, GCV 14 days): 25 points
TNSS after GCV then routine anti-allergic medicines (Case 3, GCV 14 days): 3 points
VAS after GCV then routine anti-allergic medicines (Case 3, GCV 14 days): 2.5 cm
rhinocleisis score after GCV then routine anti-allergic medicines (Case 3, GCV 14 days): 1 point
rhinocnesmus score after GCV then routine anti-allergic medicines (Case 3, GCV 14 days): 0 point
rhinorrhea score after GCV then routine anti-allergic medicines (Case 3, GCV 14 days): 1 point
sneezing score after GCV then routine anti-allergic medicines (Case 3, GCV 14 days): 1 point
ARCT after GCV treatment (Case 4, GCV 500 mg/time twice a day): 24 points
rhinocnesmus score after GCV treatment [7]: 0 point
sneezing score after GCV treatment [7]: 0 point
rhinorrhea score after GCV treatment (Case 4, GCV 500 mg/time twice a day, before 2): 1 point
rhinocleisis score after GCV treatment (Case 4, GCV 500 mg/time twice a day, before 3): 1 point
TNSS after GCV treatment (Case 4, GCV 500 mg/time twice a day, before 7): 2 points
VAS after GCV treatment (Case 4, GCV 500 mg/time twice a day, before 9): 1.5 cm
nasal symptoms after GCV then nasal spray hormone (Case 4, GCV 14 days, then 7 days of the nasal spray hormone): disappear completely
rhinocnesmus score after GCV treatment (Case 5, GCV 500 mg/time twice a day, before 0): 0 point
rhinorrhea score after GCV treatment (Case 5, GCV 500 mg/time twice a day, before 1): 1 point
rhinocleisis score after GCV treatment [8]: 1 point
sneezing score after GCV treatment [8]: 0 point
ARCT after GCV treatment (Case 5, GCV 500 mg/time twice a day, before 5): 24 points
TNSS after GCV treatment (Case 5, GCV 500 mg/time twice a day, before 7): 2 points
VAS after GCV treatment (Case 5, GCV 500 mg/time twice a day, before 10): 2.2 cm
nasal symptom (rhinocleisis, rhinocnesmus, sneezing, rhinorrhea) scores before and after GCV treatment (FIG. 2) (GCV effective group): significantly improved
ARCT, VAS and TNSS scores during diagnosis and treatment (FIGS. 1A-1C) (GCV effective group n=26, after 2 weeks GCV): significantly ameliorates the nasal symptoms
nasal symptoms after re-treatment with previously ineffective anti-allergic medicines following GCV (n=15 with TNSS≥4 or VAS≥3 cm after 2 weeks GCV, then anti-allergic medicines 2 weeks): could further reduce the nasal symptoms
intractable AR patients ineffective after the GCV treatment (oral GCV 2 weeks, 14/40, ineffective = ARCT<20): 35%
